Data published in patent US4663332A, “5-substituted N-alkylated tetrazoles” (Hoffman-La Roche Inc., priority 1985, dated 1987).

Columns and labels:
LTD4 = experiment: Leukotriene (LTD4) Induced arrhythmia and Hypertension Test; assay type: in vivo, guinea pig (Hartley); details: 100 mg/kg po, 3 hour pretreatment, conscious guinea pigs; for No. Animals with Abnormal Beat/No. Tested: first two minutes after LTD4, saline control 12/12; for ↑ABP (increase in blood pressure after LTD4): saline control 30 ± 4; for ↓ABP (decrease in blood pressure after LTD4): saline control -45 ± 4
Protocol: (6) Leukotriene (LTD4) Induced arrhythmia and Hypertension Test
Male Hartley guinea pigs are anesthetized with sodium pentobarbital and prepared for monitoring direct blood pressure and injecting drugs intravenously by catheterizing the right carotid artery and right jugular vein. Blood pressure, heart rate, and Lead II ECG are monitored in the conscious animal 24 hours later.
The oral activity of a drug is evaluated by pretreating animals 3 hours before the LTD4 challenge.
Intravenous administration of LTD4 2.5 μg/kg) is associated with an increase in blood pressure lasting approximately 1-2 minutes followed by a decrease lasting approximately 5-15 minutes. Abnormal beats consisting of premature ventricular contractions, ST elevation or depression, atrioventricular conduction block, or dissociated p waves begin during the rise in blood pressure; the peak effect occurs approximately 40 seconds after LTD4. The number of animals with abnormal beats within the first two minutes after the injection of LTD4 over the total number of animals tested is presented in Table III. During the hypotensive response, the animal usually collapses during the 2nd or 3rd minute after LTD4 and regains posture approximately 10 minutes after LTD4.

PAF [1] = experiment: Inhibition of PAF-Induced Rat Skin Wheal Test (Inhib. of PAF Skin Wheal); assay type: in vivo, Sprague-Dawley rats; details: 5 mg/kg i.v., 5 ng PAF intradermally
Protocol: (4) Inhibition of PAF-Induced Rat Skin Wheal Test (Inhib. of PAF Skin Wheal)
This test evaluates the ability of compounds to inhibit PAF-induced increases in vascular permeability in the skin of Sprague-Dawley rats. PAF induces a dose-dependent skin wheal response in this system over a dose range of 0.0001 to 1 μg/0.05 ml injection. The profound vasoactive activity of PAF is emphasized by the fact that the maximum skin wheal response is considerably greater than that obtained with LTE and an EC50 response is elicited at a 10-fold lower dose. […] Thirty minutes later the animals are sacrificed and the increase in vascular permeability induced by the migration of dye into the injection point in the skin is determined. For this purpose, rats are sacrificed by cervical dislocation,the dorsal skin is removed, the long and short axis of each animal is measured with a metric vernier caliper and the average diameter is obtained. Results obtained are measured as % of migration of dye as compared to untreated animals. More specifically, results are measured as a percent inhibition of the diameters of the wheals formed in a treated animals as compared to untreated animals. […]

[2] = biological target: T1, PAF binding to dog platelets (Canis lupus familiaris, UniProt A0A8I3NSH0); experiment: PAF Radioreceptor Binding Assay (PAF Binding); details: inhibition of 3H-PAF binding to dog platelets, 10 min, room temperature
T1 construct: from tissue; host or cells: washed platelets from citrate-treated dog blood
T1 sequence (A0A8I3NSH0 1-343): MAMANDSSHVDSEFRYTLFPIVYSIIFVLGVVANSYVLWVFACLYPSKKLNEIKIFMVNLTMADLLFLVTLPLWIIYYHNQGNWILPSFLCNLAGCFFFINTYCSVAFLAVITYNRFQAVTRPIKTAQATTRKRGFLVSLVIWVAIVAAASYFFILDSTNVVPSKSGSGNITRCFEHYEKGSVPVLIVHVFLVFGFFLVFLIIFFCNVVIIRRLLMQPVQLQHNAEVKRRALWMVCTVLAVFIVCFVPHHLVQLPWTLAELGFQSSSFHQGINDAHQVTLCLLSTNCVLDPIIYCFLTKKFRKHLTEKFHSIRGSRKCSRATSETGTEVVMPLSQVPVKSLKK
Protocol: (1) PAF Radioreceptor Binding Assay (PAF Binding)
Platelet rich plasma is prepared by centrifugation of citrate-treated dog blood. Acidification to pH 6.5 with 0.15M citric acid and centrifugation for 10 minutes at 1000×g yields a platelet pellet which is then washed by resuspension in EDTA-Phosphate Buffered Saline (PBS) and recentrifuged. The washed platelet preparation is adjusted to 2×10^7 platelets/50 μl in 0.1% bovine serum albumin-PBS.
To a 400 μl microfuge tube containing 50 μl silicone oil (specific gravity 1.023) is added buffer, PAF standard or analog, or an extract to bring the aqueous volume to 150 μl. 50 μl of ^3 H-PAF (10,000 cpm, 45 Ci/mM) is added followed by 2×10^7 dog platelets. After mixing, incubating for 10 minutes at room temperature, and centrifuging for 1 minute in a Beckman Microfuge B (8000×g), the pellet is removed by clipping off the tip of the tube, the platelets are solubilized with 200 μl of 50% methanol and counted in 10 ml of Aquasol. […] Results obtained with representative copounds of the present invention in this assay are summarized hereinafter in Tables I and II. IC50 is drug concentration (μMolar) which inhibits PAF binding to dog platelets by 50%.

PAF [3] = experiment: Inhibition of PAF Induced Guinea Pig Bronchoconstriction Test (Inhib. of PAF Broncho.); assay type: in vivo, guinea pig (Hartley strain); details: Cavia porcellus, iv; 1 mg/kg i.v. (1 min. pretreat)
Protocol: (3) Inhibition of PAF Induced Guinea Pig Bronchoconstriction Test (Inhib. of PAF Broncho.)
Male guinea pigs (Hartley strain) weighing 300 to 500 g are anesthetized with urethane (2 g/kg) intraperitoneally and a polyethylene cannula is inserted into the jugular vein for drug administration. Tracheal pressure is recorded from a cannula inserted in the trachea and connected to a Statham pressure transducer. Propranolol (0.1 mg/kg) is administered intravenously five minutes before challenge with synthetic PAF, the animal's skeletal muscles are then paralyzed with succinylcholine (1.2 mg/kg i.v.), and the animal is respirated using a Harvard small animal respirator operating at 40 breaths/min and 2.5 cc stroke volume. Under these conditions PAF induces a dose-dependent increase in ventilatory pressure over a dose range of 0.5 to 5 μg/kg i.v. For screening purposes animals are challenged with a single dose of PAF (10 μg/kg i.v.).
The peak increase in ventilatory pressure (cm H2 O) is recorded for three control animals and five drug-treated animals and the percent inhibition determined from the following formula [formula] Results obtained with representative compounds of the invention in this test are summarized hereinafter in Tables I and II.

TXA2 synthase = biological target: T2, TXA2 synthase (Homo sapiens, UniProt P24557); experiment: Thromboxane Synthase Inhibition, In Vitro (TXA2 Synth. Inhib.); assay type: biochemical; details: human platelet microsomes, 10 μM 14C-PGH2, 22° C., 2 min
T2 construct: using microsomal fractions from human platelets as enzyme source; from tissue; host or cells: microsomal fractions from human platelets
T2 sequence (P24557 1-533): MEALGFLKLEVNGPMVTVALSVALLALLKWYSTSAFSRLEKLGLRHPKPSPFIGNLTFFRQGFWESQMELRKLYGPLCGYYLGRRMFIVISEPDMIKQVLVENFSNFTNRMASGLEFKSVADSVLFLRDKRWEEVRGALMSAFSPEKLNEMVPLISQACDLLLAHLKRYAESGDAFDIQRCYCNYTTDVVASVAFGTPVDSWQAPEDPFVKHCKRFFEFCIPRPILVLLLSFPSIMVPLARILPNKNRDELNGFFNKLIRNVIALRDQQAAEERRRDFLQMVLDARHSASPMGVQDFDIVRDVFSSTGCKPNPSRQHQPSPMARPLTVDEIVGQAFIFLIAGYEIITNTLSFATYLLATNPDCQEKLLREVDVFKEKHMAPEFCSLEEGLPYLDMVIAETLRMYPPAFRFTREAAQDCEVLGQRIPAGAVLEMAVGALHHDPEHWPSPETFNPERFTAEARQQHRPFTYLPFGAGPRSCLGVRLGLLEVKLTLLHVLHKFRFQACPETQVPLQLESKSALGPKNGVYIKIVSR
Protocol: (2) Thromboxane Synthase Inhibition, In Vitro (TXA2 Synth. Inhib.)
TXA2 synthase activity is measured by following the conversion of ^14 C-prostaglandin endoperoxide (PGH2) to ^14 C-thromboxane A2 (TXA2) using microsomal fractions from human platelets as enzyme source. In the aqueous incubation medium, the TXA2 decomposes rapidly into TXB2. The amount of TXA2 synthase is adjusted so that under the conditions of the assay approximately 80-90% of the substrate, PGH2, is converted to product in control tubes. To prepare ^14 C-PGH2, ^14 C-AA (50-60 mCi/mmole; Rose Chem.) is incubated with sheep seminal vesicular gland microsomes for 1.5 minutes at 37° C. and then the ^14 C-PGH2 is extracted with diethylether, purified on columns oof Sephadex LH-20 or silicic acid, and stored in acetone at -70° C. Incubations are done as follows. Sufficient ^14 C-PGH2 to yield a final substrate concentration of 10 μM (30,000 cpm) is added to the incubation tubes and then the acetone is removed under nitrogen. The tubes are placed in an ice bath and then 215 μl of ice cold phosphate buffered saline, 10 μl of ethanol (control) or of test drug in ethanol, and 25 μl of the microsomal suspension are added with mixing in that order as rapidly as possible. The tubes are incubated at 22° C. for 2 minutes, the reaction is stopped and then the radioactive products and the unconverted PGH2 are extracted and analyzed by thin layer chromatography. […] The amount of ^14 C-PGH2 converted to products was used as a measure of TXA2 synthase activity. Inhibitors were tested initially at a final concentration 100 μM. Results obtained with representative compounds of the present invention in this assay are summarized hereafter in Tables I and II. IC50 is the drug concentration (μMolar) which inhibits TXA2 activity by 50%.

| Compound | No. Animals with Abnormal Beat/No. Tested (LTD4) | ↑ABP (increase in blood pressure after LTD4) (LTD4) | ↓ABP (decrease in blood pressure after LTD4) (LTD4) | inhibition of PAF skin wheal (PAF [1]) | IC50 [2] | inhibition in vivo at 1 mg/kg (PAF [3]) | IC50 (TXA2 synthase) |
| --- | --- | --- | --- | --- | --- | --- | --- |
| CCCc1c(OCCCc2nnnn2CCCc2cccnc2)ccc(C(C)=O)c1O [3 3, 1-[2-Hydroxy-3-propyl-4-[3-[1-[3-(3-pyridinyl)propyl]-1H-tetrazol-5-yl]propoxy]phenyl]ethanone] | 1/4 | 14 ± 5 Δmm Hg | -23 ± 10 Δmm Hg |  |  |  |  |
| CCCc1c(OCCCCCc2nnnn2CCCc2cccnc2)ccc(C(C)=O)c1O [5 3, 1-[2-hydroxy-3-propyl-4-[5-[1-[3-(3-pyridinyl)propyl]-1H-tetrazol-5-yl]pentyloxy]phenyl]ethanone] | 0/4 | 13 ± 8 Δmm Hg | -20 ± 9 Δmm Hg |  |  |  |  |
| CCCc1c(OCCCCc2nnnn2CCCc2cccnc2)ccc(C(C)=O)c1O [H H 4 3 3-pyridyl, 1-[2-Hydroxy-3-propyl-4-[4-[1-[3-(3-pyridinyl)propyl]-1H-tetrazol-5-yl]butoxy]phenyl]ethanone] |  |  |  | 65±3% | 125 nM | 99% | 100 to 1000 nM |
